These results are taken from patent US9611277B2 (Janssen Pharmaceutica NV, priority 2013, dated 2017).

The target of one assay is human orexin 1 receptor (Homo sapiens, UniProt O43613). The assay is described as follows: Human orexin 1 receptor radioligand binding. The settings on record: read-out: hOX1 Ki. How it is done:
Data are analyzed using pc-Sandy macro and graphed on Graphpad Prism 5. For analysis, each concentration point is averaged from triplicate values and the averaged values are plotted on Graphpad Prism. The IC50 was determined by applying the following equation (GraphPad Prism 5.0, SanDiego) for one site competition where X=log (concentration) and Y=specific binding. Top denotes the total [^3H]-(1-(5-(2-fluoro-phenyl)-2-methyl-thiazol-4-yl)-1-((S)-2-(5-phenyl-(1,3,4)oxadiazol-2-ylmethyl)-pyrrolidin-1-yl)-methanone) binding, bottom denotes the nonspecific [^3H]-(1-(5-(2-fluoro-phenyl)-2-methyl-thiazol-4-yl)-1-((S)-2-(5-phenyl-(1,3,4)oxadiazol-2-ylmethyl)-pyrrolidin-1-yl)-methanone) binding. Graphpad Prism calculates Ki value from IC50 and the pre-determined Kd values for [^3H]-(1-(5-(2-fluoro-phenyl)-2-methyl-thiazol-4-yl)-1-((S)-2-(5-phenyl-(1,3,4)oxadiazol-2-ylmethyl)-pyrrolidin-1-yl)-methanone) and [3H]-EMPA. The Ki for each compound is then uploaded into 3DX. Each run comprises individual compounds in triplicate. The data in Table 1 and Table 2 represent averages from between 2-20 runs
Rat and Human Orexin 1 Receptor Radioligand Binding Studies
After centrifugation (2K×G, 5 min at 4° C.), the supernatant was aspirated and the pellets frozen and stored at −80° C. […] Each cell pellet from a 15 cm plate was resuspended in 10 mL, stored on ice, and homogenized for 45 sec prior to addition to the reactions. […] The final concentration of DMSO in the reactions is equal to or less than 0.1%. Total and nonspecific binding was determined in the absence and presence of 10 μM almorexant. The total volume of each reaction is 200 μL (20 μL of diluted compounds, 80 μL of [^3H]-(1-(5-(2-fluoro-phenyl)-2-methyl-thiazol-4-yl)-1-((S)-2-(5-phenyl-(1,3,4)oxadiazol-2-ylmethyl)-pyrrolidin-1-yl)-methanone) diluted in PBS and 100 μL of the cell suspension). […] The plates were washed 3 times by aspirating 30 ml PBS through the plates. Plates were dried in 55° C. oven for 60 min, scintillation fluid was added, and the radioactivity was counted on a Topcount (Packard).

The next assay has as its target rat orexin 1 receptor (Rattus norvegicus, UniProt P56718). Nature of the assay: Rat orexin 1 receptor radioligand binding. The settings on record: read-out: rOX1 Ki. In outline: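 Competition binding with the tritiated thiazolyl-pyrrolidinyl-methanone radioligand in PBS on homogenized rat or human OX1R-expressing cell suspensions, ≤0.1% DMSO; nonspecific binding defined with 10 μM almorexant. Bound radioactivity read by scintillation after filtration; IC50 from one-site competition fit, converted to Ki using pre-determined radioligand Kd.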

The target of another assay is human orexin 2 receptor (Homo sapiens (Human), UniProt O43614). The assay is described as follows: Human orexin 2 receptor radioligand binding. The settings on record: read-out: hOX2 Ki. In outline: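 HEK293 cells stably expressing human OX2 receptor, homogenized, incubated with [3H]-EMPA and compounds (DMSO ≤0.1%); nonspecific binding with 10 μM almorexant. Filter-bound radioactivity counted by scintillation; IC50 from one-site competition fit of triplicates, Ki from IC50 and predetermined radioligand Kd, averaged over 2-20 runs.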

The mark [1] stands for this setting: human orexin 1 receptor, averages of 2-20 runs.
The mark [2] stands for this setting: rat orexin 1 receptor, averages of 2-20 runs.
[3] abbreviates: human orexin 2 receptor, averages of 2-20 runs.

Where two headings read alike, the source gives them in different places.

human orexin 2 receptor, sequence (O43614 whole entry): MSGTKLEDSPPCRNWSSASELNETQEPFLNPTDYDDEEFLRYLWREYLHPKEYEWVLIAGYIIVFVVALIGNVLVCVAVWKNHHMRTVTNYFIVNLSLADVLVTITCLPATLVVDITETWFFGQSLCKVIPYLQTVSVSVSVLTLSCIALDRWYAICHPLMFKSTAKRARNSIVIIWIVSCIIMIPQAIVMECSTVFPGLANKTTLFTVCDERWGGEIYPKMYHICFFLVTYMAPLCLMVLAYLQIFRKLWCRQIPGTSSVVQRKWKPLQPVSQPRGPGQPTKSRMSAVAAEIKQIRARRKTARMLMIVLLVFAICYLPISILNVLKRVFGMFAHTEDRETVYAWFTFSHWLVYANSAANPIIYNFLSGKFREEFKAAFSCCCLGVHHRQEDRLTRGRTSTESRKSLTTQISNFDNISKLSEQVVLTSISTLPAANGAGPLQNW

The term Ki denotes a dissociation constant, usually derived from enzyme kinetics or from competition with a known ligand. With `O=C(c1ccccc1-n1nccn1)N1C[C@@H]2CC[C@H]1[C@H](Oc1ccc(Br)cn1)C2` [Example 268, (2-(2H-1,2,3-triazol-2-yl)phenyl)((1S,4R,6R)-6-((5-bromopyridin-2-yl)oxy)-2-azabicyclo[2.2.2]octan-2-yl)methanone], the results for the Ki at human orexin 1 receptor (setting [1]), on rat orexin 1 receptor (setting [2]) and at human orexin 2 receptor (setting [3]) were 4 nM, 5 nM and 200 nM, respectively.

In the case of `O=C(c1cccc(F)c1-c1ncccn1)N1C[C@@H]2CC[C@H]1[C@H](Oc1ncc(C(F)(F)F)cc1Cl)C2` [Example 281, ((1S,4R,6R)-6-((3-chloro-5-(trifluoromethyl)pyridin-2-yl)oxy)-2-azabicyclo[2.2.2]octan-2-yl)(3-fluoro-2-(pyrimidin-2-yl)phenyl)methanone], the inhibition constant (Ki) was 19 nM on human orexin 1 receptor (setting [1]), 5 nM at rat orexin 1 receptor (setting [2]) and 336 nM on human orexin 2 receptor (setting [3]).

As for `O=C(c1ccc(F)cc1-c1ncccn1)N1C[C@H]2C[C@@H](Nc3ncc(Cl)cn3)[C@@H]1C2` [Example 237, ((1S,4S,6R)-6-((5-chloropyrimidin-2-yl)amino)-2-azabicyclo[2.2.1]heptan-2-yl)(4-fluoro-2-(pyrimidin-2-yl)phenyl)methanone], the Ki on human orexin 1 receptor (setting [1]) stood at 13 nM; on rat orexin 1 receptor (setting [2]), 32 nM; on human orexin 2 receptor (setting [3]), 1900 nM.

For `O=C(c1cc(F)ccc1-n1nccn1)N1CC2CC(Nc3cnc(C(F)(F)F)cn3)C1C2` [Example 194, ((5-fluoro-2-(2H-1,2,3-triazol-2-yl)phenyl)((1S,4S,6R)-6-((5-(trifluoromethyl)pyrazin-2-yl)amino)-2-azabicyclo[2.2.1]heptan-2-yl)methanone], the inhibitory constant (Ki) came to 8 nM at human orexin 1 receptor (setting [1]), 8 nM on rat orexin 1 receptor (setting [2]) and 241 nM on human orexin 2 receptor (setting [3]).

As to `Cc1ccc(-n2nccn2)c(C(=O)N2C[C@H]3C[C@@H](Oc4cnc(C(F)(F)F)cn4)[C@@H]2C3)n1` [Example 125, (6-methyl-3-(2H-1,2,3-triazol-2-yl)pyridin-2-yl)((1S,4R,6R)-6-((5-(trifluoromethyl)pyrazin-2-yl)oxy)-2-azabicyclo[2.2.1]heptan-2-yl)methanone], the inhibitory constant (Ki) was determined as 88 nM at human orexin 1 receptor (setting [1]), 220 nM at rat orexin 1 receptor (setting [2]) and 5500 nM on human orexin 2 receptor (setting [3]).

As for `CN(c1cnc(C(F)(F)F)cn1)[C@@H]1C[C@H]2C[C@@H]1N(C(=O)c1ccccc1-c1ncccn1)C2` [Example 210, ((1S,4S,6R)-6-(methyl(5-(trifluoromethyl)pyrazin-2-yl)amino)-2-azabicyclo[2.2.1]heptan-2-yl)(2-(pyrimidin-2-yl)phenyl)methanone], the inhibition constant (Ki) amounted to 5 nM on human orexin 1 receptor (setting [1]), 6 nM at rat orexin 1 receptor (setting [2]) and 502 nM at human orexin 2 receptor (setting [3]).

Turning to “((1S,4S,6R)-6-((5-chloropyrimidin-2-yl)amino)-2-azabicyclo[2.2.1]heptan-2-yl)(2-(5-fluoropyrimidin-2-yl)phenyl)methanone [Example 241]”, the Ki at human orexin 1 receptor is 12 nM; on rat orexin 1 receptor it was 21 nM; at human orexin 2 receptor it was 971 nM.

As to `Cc1ccc(-n2nccn2)c(C(=O)N2C[C@@H]3CC[C@H]2[C@H](Oc2cnc(C(F)(F)F)cn2)C3)n1` [Example 77, (6-methyl-3-(2H-1,2,3-triazol-2-yl)pyridin-2-yl)((1S,4R,6R)-6-((5-(trifluoromethyl)pyrazin-2-yl)oxy)-2-azabicyclo[2.2.2]octan-2-yl)methanone], the values for the Ki on human orexin 1 receptor (setting [1]), at rat orexin 1 receptor (setting [2]) and on human orexin 2 receptor (setting [3]) were 13 nM, 9 nM and 1700 nM, respectively.

As to `O=C(c1cc(F)ccc1-c1ncccn1)N1C[C@H]2C[C@@H](Oc3cnc(C(F)(F)F)cn3)[C@@H]1C2` [Example 128, (5-fluoro-2-(pyrimidin-2-yl)phenyl)((1S,4R,6R)-6-((5-(trifluoromethyl)pyrazin-2-yl)oxy)-2-azabicyclo[2.2.1]heptan-2-yl)methanone], the values for the Ki on human orexin 1 receptor (setting [1]), on rat orexin 1 receptor (setting [2]) and at human orexin 2 receptor (setting [3]) were 62 nM, 69 nM and 3800 nM, respectively.

For the compound `O=C(c1c(F)cccc1-c1ncccn1)N1C[C@@H]2CC[C@H]1[C@H](Oc1ccc(C(F)(F)F)cn1)C2` [Example 261, (2-fluoro-6-(pyrimidin-2-yl)phenyl)((1S,4R,6R)-6-((5-(trifluoromethyl)pyridin-2-yl)oxy)-2-azabicyclo[2.2.2]octan-2-yl)methanone], the Ki on human orexin 1 receptor (setting [1]) amounted to 9 nM; at rat orexin 1 receptor (setting [2]), 21 nM; at human orexin 2 receptor (setting [3]), 400 nM.

With `Cc1cnc(C(=O)N2C[C@H]3C[C@@H](Nc4cnc(C(F)(F)F)cn4)[C@@H]2C3)c(-n2nccn2)c1` [Example 187, (5-methyl-3-(2H-1,2,3-triazol-2-yl)pyridin-2-yl)((1S,4S,6R)-6-((5-(trifluoromethyl)pyrazin-2-yl)amino)-2-azabicyclo[2.2.1]heptan-2-yl)methanone], the Ki on human orexin 1 receptor (setting [1]) was determined as 30 nM; on rat orexin 1 receptor (setting [2]), 28 nM; on human orexin 2 receptor (setting [3]) it was 1600 nM.

In the case of `Cc1cnc(-c2ncccn2)c(C(=O)N2C[C@H]3C[C@@H](Nc4ccc(C(F)(F)F)cn4)[C@@H]2C3)c1` [Example 151, (5-methyl-2-(pyrimidin-2-yl)pyridin-3-yl)((1S,4S,6R)-6-((5-(trifluoromethyl)pyridin-2-yl)amino)-2-azabicyclo[2.2.1]heptan-2-yl)methanone], the results for the inhibition constant Ki on human orexin 1 receptor (setting [1]), on rat orexin 1 receptor (setting [2]) and on human orexin 2 receptor (setting [3]) were 47 nM, 21 nM and 5100 nM, respectively.

Take `O=C(c1cc(F)ccc1-c1ncco1)N1C[C@H]2C[C@@H](Oc3ccc(C(F)(F)F)cn3)[C@@H]1C2` [Example 293]: the inhibition constant Ki worked out at 26 nM at human orexin 1 receptor (setting [1]), 16 nM at rat orexin 1 receptor (setting [2]) and 535 nM on human orexin 2 receptor (setting [3]).

In the case of `O=C(c1ccc(F)cc1-c1ncccn1)N1CC2CCC1C(Nc1cnc(C(F)(F)F)cn1)C2` (racemic) [Example 258, (R/S)-(4-fluoro-2-(pyrimidin-2-yl)phenyl)(6-((5-(trifluoromethyl)pyrazin-2-yl)amino)-2-azabicyclo[2.2.2]octan-2-yl)methanone], the Ki was determined as 17 nM on human orexin 1 receptor (setting [1]), 26 nM on rat orexin 1 receptor (setting [2]) and 2600 nM on human orexin 2 receptor (setting [3]).

As for `Cc1ccc(-c2ncccn2)c(C(=O)N2C[C@H]3C[C@@H](Nc4cnc(C(F)(F)F)cn4)[C@@H]2C3)n1` [Example 191, (6-methyl-3-(pyrimidin-2-yl)pyridin-2-yl)((1S,4S,6R)-6-((5-(trifluoromethyl)pyrazin-2-yl)amino)-2-azabicyclo[2.2.1]heptan-2-yl)methanone], the Ki at human orexin 1 receptor (setting [1]) came to 13 nM; on rat orexin 1 receptor (setting [2]), 15 nM; on human orexin 2 receptor (setting [3]) it was 163 nM.

Regarding `Cc1ccc(-n2nccn2)c(C(=O)N2C[C@H]3C[C@@H](Nc4cnc(C(F)(F)F)cn4)[C@@H]2C3)n1` [Example 61, (6-methyl-3-(2H-1,2,3-triazol-2-yl)pyridin-2-yl)((1S,4S,6R)-6-((5-(trifluoromethyl)pyrazin-2-yl)amino)-2-azabicyclo[2.2.1]heptan-2-yl)methanone], the Ki turned out to be 19 nM on human orexin 1 receptor (setting [1]), 15 nM at rat orexin 1 receptor (setting [2]) and 248 nM at human orexin 2 receptor (setting [3]).

On to `O=C(c1cccc(F)c1-c1ncccn1)N1C[C@H]2C[C@@H](Oc3ncc(Cl)cn3)[C@@H]1C2` [Example 284, ((1S,4R,6R)-6-((5-chloropyrimidin-2-yl)oxy)-2-azabicyclo[2.2.1]heptan-2-yl)(3-fluoro-2-(pyrimidin-2-yl)phenyl)methanone], for which the Ki at human orexin 1 receptor (setting [1]) amounted to 47 nM; at rat orexin 1 receptor (setting [2]) it was 45 nM; on human orexin 2 receptor (setting [3]), 5600 nM.

On to `O=C(c1ccccc1-n1nccn1)N1C[C@H]2C[C@@H](Oc3ccc(F)cn3)[C@@H]1C2` [Example 118, (2-(2H-1,2,3-triazol-2-yl)phenyl)((1S,4R,6R)-6-((5-fluoropyridin-2-yl)oxy)-2-azabicyclo[2.2.1]heptan-2-yl)methanone], for which the Ki is 105 nM on human orexin 1 receptor (setting [1]), 133 nM at rat orexin 1 receptor (setting [2]) and 1600 nM at human orexin 2 receptor (setting [3]).

Turning to `O=C(c1cc(F)ccc1-c1ncccn1)N1C[C@H]2C[C@@H](Nc3cnc(C(F)(F)F)cn3)[C@@H]1C2` [Example 199, (5-fluoro-2-(pyrimidin-2-yl)phenyl)((1S,4S,6R)-6-((5-(trifluoromethyl)pyrazin-2-yl)amino)-2-azabicyclo[2.2.1]heptan-2-yl)methanone], the Ki at human orexin 1 receptor (setting [1]) was 8 nM; on rat orexin 1 receptor (setting [2]), 6 nM; at human orexin 2 receptor (setting [3]), 221 nM.
